Broadly, the IC50 is the concentration that inhibits the measured activity by half.

The experiment addresses T1, Human thrombin (Homo sapiens, UniProt P00734).
T1 construct: purchased Centraal Laboratorium voor Bloedtransfusie, Amsterdam, The Netherlands
As to the kind of experiment: Anti-thrombin assay: rate of hydrolysis of chromogenic substrate S-2238 by thrombin. The experiment is classed as biochemical. As to conditions: TNP buffer pH 7.4, 37° C., substrate S-2238, absorbance at 405 nm; concentration causing 50% inhibition of the maximum absorbance of the blank. The method, then: Thrombin (Factor IIa) is a factor in the coagulation cascade.
The anti-thrombin activity of compounds of the present invention was assessed by measuring spectrophotometrically the rate of hydrolysis of the chromogenic substrate s-2238 exterted by thrombin. This assay for anti-thrombin activity in a buffer system was used to assess the IC50-value of a test compound.
Test medium: Tromethamine-NaCl-polyethylene glycol 6000 (TNP) buffer. Reference compound: I2581 (Kabi) Vehicle:TNP buffer. Solubilisation can be assisted with dimethylsulphoxide, methanol, ethanol, acetonitrile or tert.-butyl alcohol which are without adverse effects in concentrations up to 2.5% in the final reaction mixture.
Technique Reagents*: 1. Tromethamine-NaCl (TN) buffer. Composition of the buffer: Tromethamine(Tris) 6.057 g (50 mmol), NaCl 5.844 g (100 mmol), water to 1 l. The pH of the solution is adjusted to 7.4 at 37° C. with HCl (10 mmol·l^−1). 2. TNP buffer: Polyethylene glycol 6000 is dissolved in TN buffer to give a concentration of 3 g·l^−1. 3. S-2238 solution: One vial S-2238 (25 mg; Kabi Diagnostica, Sweden) is dissolved in 20 ml TN buffer to give a concentration of 1.25 mg·ml^−1 (2 mmol·l^−1). 4. Thrombin solution: Human thrombin (16 000 nKat·vial^−1; Centraal Laboratorium voor Bloedtransfusie, Amsterdam, The Netherlands) is dissolved in TNP buffer to give a stock solution of 835 nKat·ml^−1. Immediately before use this solution is diluted with TNP buffer to give a concentration of 3.34 nKat·ml^−1.
* All ingredients used are of analytical grade
For aqueous solutions ultrapure water (Milli-Q quality) is used.
Preparation of Test and Reference Compound Solutions
The test and reference compounds are dissolved in Milli-Q water to give stock concentrations of 10^−2 mol·l^−1. Each concentration is stepwise diluted with the vehicle to give concentrations of 10^−3, 10^−4 and 10^−5 mol·l^−1. […]
At room temperature 0.075 ml and 0.025 ml test compound or reference compound solutions or vehicle are alternately pipetted into the wells of a microtiter plate and these solutions are diluted with 0.115 ml and 0.0165 ml TNP buffer, respectively. […] Starting after 1 min of incubation, the absorbance of each sample at 405 nm is measured every 2 min. for a period of 90 min. using a kinetic microtiter plate reader (Twinreader plus, Flow Laboratories).
All data are collected in an IBM personal computer using LOTUS-MEASURE. For each compound concentration (expressed in mol·l^−1 reaction mixture) and for the blank the absorbance is plotted versus the reaction time in min.
Evaluation of responses: For each final concentration the maximum absorbance was calculated from the assay plot. […]
With `NCCCCC(NC(=O)CN(C(=O)C(N)Cc1ccccc1)C1CCCC1)C(=O)c1nccs1` [2(e), H—D-Phe-(N-cyclopentyl)-Gly-Lys-(2-thiazolyl)], the IC50 turned out to be 4.5 µM. The result for `NCCCCC(NC(=O)CN(C(=O)CCc1ccccc1)C1CCCC1)C(=O)C(=O)O` (stereo not shown) [4(b), 3-Phenylpropionyl-(N-cyclopentyl)-Gly-LysΨ[COCO]—OH] reads 4.34 µM; that for `NCCCC[C@H](NC(=O)[C@@H]1CCCN1C(=O)[C@@H](Cc1ccc(F)cc1)NCC(=O)O)C(=O)c1nccs1` [Example 39, HOOC—CH2—D-p-F-Phe-Pro-Lys-(2-thiazolyl)], 19 µM; that for `NCCCCC(NC(=O)CN1CCCCC(NS(=O)(=O)Cc2ccccc2)C1=O)C(=O)C(=O)O` (stereo not shown) [Example 41, BzlSO2-norLeu(cyclo)Gly-LysΨ[COCO]—OH], 0.135 µM.

The record behind these values is patent US6432921B1, “Thrombin inhibitors” (Akzo Nobel N.V., priority 1995, dated 2002).
